{
  "source": "patent US20250289844A1",
  "about": "“TREATMENT OF GM1 DEFICIENCIES” (Seneb BioSciences, Inc., priority 2022, published 2025)",
  "key": {"[1]": {"details": "vendor or literature description; cited from earlier work"}, "[2]": {"experiment": "Formulation / solubility of GM1 in water or buffer", "assay_type": "physicochemical", "details": "50 to 500 mg/mL", "description": "(§1) FIG. 26. Solubility of GM1 of the Invention and Pharmacokinetics of different formulations of GM1 in Sprague Dawley after subcutaneous administration at a dose of 30 mg/Kg. GM1 was formulated at different GM1 concentrations from 50 mg/mL to 500 mg/mL in water or buffer with or without excipients and cosolvents.\n(§2) Example 4. Formulation of GM1. Water or buffer solutions were added to GM1 and the suspension stirred until the GM1 was completely dissolved. […] Concentrations of solutions of GM1 prepared by this method included 50 mg/mL, 100 mg/mL, 200 mg/mL, 300 mg/mL, 400 mg/mL and 500 mg/mL. Formulations containing phosphate buffer 0-15 mM (pH 7.0-7.4) were also used and various excipients added including arginine (60-100 mM) and sodium chloride (0-137 mM) (FIG. 26)."}, "[3]": {"tested_on": "GM2 synthase deficient mice", "experiment": "Minimum effective dose and motor/cognitive function, ganglioside replacement therapy in GM2 synthase deficient mice", "assay_type": "in vivo", "description": "FIG. 14. Motor and Cognitive function of GM2 synthase deficient mice (heterozygotes; HT and homozygotes; KO; 200-300 day old) treated with either saline (Sal) or GM1 (d18:1, C18:0) (30 mg/Kg, intraperitoneal, once daily) and compared to age matched controlled wild type mice (WT). FIG. 14A. Mouse grip strength, and FIG. 14B. Mouse cognitive function (T-maze), were assessed after 3 weeks of dosing.\nFIG. 27. Minimum effective dose. Motor function of GM2 synthase deficient mice (heterozygotes; HT, 200-300 day old) treated with GM1(d18:1, C18:0) (intraperitoneal, once daily). FIG. 27A. Mouse grip strength, FIG. 27B. Adhesive removal, and FIG. 27C. Pole climbing.\n(§3) The minimum effective dose of GM1 of the invention was 5 mg/kg (IP, once daily) when administered as ganglioside replacement therapy in ganglioside deficient mice FIG. 27. […] The predicted therapeutic human dose based on allometric scaling of all animal and human data is predicted to be 2-10 mg/Kg administered daily as a parenteral (e.g., subcutaneous, intraperitoneal, intramuscular). In an exemplary embodiment, the therapeutically effective amount is from about 2 to about 10 mg per kg of body weight per dosage. In an exemplary embodiment, the dose of the GM1 formulation is administered parenterally once daily."}, "[4]": {"experiment": "Stability of GM1 formulations at room temperature", "assay_type": "physicochemical", "details": "water or phosphate buffer 0-15 mM pH 7.0-7.4, arginine 60-100 mM, sodium chloride 0-137 mM", "description": "as §2"}, "[5]": {"tested_on": "GM3 synthase deficient mice", "experiment": "Motor and cognitive function, ganglioside replacement therapy in GM3 synthase deficient mice", "assay_type": "in vivo", "details": "5 mg/kg IP once daily; GM3 synthase deficient mice (knock-outs and heterozygotes)", "description": "FIG. 15. Motor and Cognitive function of GM3 synthase deficient mice (heterozygotes; HT and homozygotes; KO; 7-10 months old) treated with either saline (Sal) or GM1 (d18:1, C18:0) (30 mg/Kg, intraperitoneal, once daily for 3 weeks) and compared to age matched controlled wild type mice (WT). FIG. 15A. Grip Duration, FIG. 15B. Beam Transversal, and FIG. 15C. Short-term memory impairment (T-maze).\nas §3"}, "[6]": {"tested_on": "Huntington's disease YAC128 mice", "experiment": "Motor function (rotarod, narrow beam) in Huntington's disease YAC128 mice", "assay_type": "in vivo", "details": "Alzet pump, intracerebral ventricular injection", "description": "FIG. 25. Improvement of motor function in Huntington's disease YAC128 mice after ganglioside replacement therapy using ganglioside compositions of the invention. Mice were administered GM1 using an Alzet pump and intracerebral ventricular injection. FIG. 25A. […] FIG. 25B. […] WT mice treated with GM1 (□), solid line; WT mice treated with cerebral spinal fluid (▪) hashed line; YAC128 Huntington's disease mice treated with cerebral spinal fluid (⋄) hashed line; YAC128 Huntington's disease mice treated with GM1 (♦) solid line.\nIn still other embodiments, gangliosides and other compounds of the invention can be used as a therapeutic to treat Huntington's disease caused by a deficiency of one or more ganglioside species, e.g., GM3, GM2 and/or GM1, FIGS. 20 and 24 (Di Pardo (2016) Front. Neurosci. 10:457). In some embodiments, the ganglioside deficiency is caused by reduced or missing enzyme activity and/or expression selected from GM3 synthase (ST3Gal5), GM2 synthase (B4GalNT1) and GM1 synthase (B3GalT4), FIG. 24 (Desplats (2007) Neurobiol. Dis. 27(3): 265-277). In another preferred embodiment, the ganglioside deficiency encompasses reduced amounts or missing ganglioside selected from GM3, GM2 and/or GM1. […]"}, "[7]": {"experiment": "Pharmacokinetics of formulated GM1 after subcutaneous administration", "assay_type": "in vivo", "details": "Sprague Dawley rats, 30 mg/Kg, all GM1 concentrations tested", "description": "as §1\nExample 5. Pharmacokinetics of Formulated GM1. The formulated GM1 was administered, subcutaneously, to Sprague Dawley rats and the pharmacokinetics determined (FIG. 26). The plasma GM1 levels returned to normal after 72 hours for all GM1 concentrations tested."}},
  "data": [
    {"smiles": "CCCCCCCCCCCCC/C=C/C(O)C(CO[C@@H]1O[C@H](CO)[C@@H](O[C@@H]2O[C@H](CO)[C@H](O[C@@H]3O[C@H](CO)[C@H](O)[C@H](O[C@@H]4O[C@H](CO)[C@H](O)[C@H](O)[C@H]4O)[C@H]3NC(C)=O)[C@H](O[C@]3(C(=O)O)C[C@H](O)[C@@H](NC(C)=O)[C@@H](C(O)C(O)CO)O3)[C@H]2O)[C@H](O)[C@H]1O)NC(=O)CCCCCCCCCCCCCCCCC", "note": "(stereo partly drawn) [GM1, GM1 (d18:1/C18:0)]", "values": [
      {"measurement": "solubility in water", "setting": "[1]", "value": "effectively no solubility in water"},
      {"measurement": "appearance of solution", "setting": "[2]", "value": "clear, colorless and non-opaque solution"},
      {"measurement": "motor and cognitive deficits", "setting": "[3]; 5 mg/kg IP once daily, GM2 synthase deficient mice (knock-outs and heterozygotes)", "value": "reversing motor and cognitive deficits"},
      {"measurement": "minimum effective dose", "setting": "[3]; IP, once daily, ganglioside replacement therapy in ganglioside deficient mice (FIG. 27: grip strength, adhesive removal, pole climbing)", "value": 5, "unit": "mg/kg"},
      {"measurement": "stability of formulations", "setting": "[4]", "value": "stable at room temperature for months"},
      {"measurement": "motor and cognitive deficits", "setting": "[5]", "value": "reversing motor and cognitive deficits"},
      {"measurement": "rotarod motor function", "setting": "[6]; FIG. 25A", "value": "Improved rotarod motor function"},
      {"measurement": "narrow beam motor function", "setting": "[6]; FIG. 25B", "value": "Improved narrow beam motor function"},
      {"measurement": "time after which plasma GM1 levels returned to normal", "setting": "[7]", "value": 72, "unit": "h"}
    ]}
  ]
}
